Results reported in patent publication US11065292B2, “Feijoa fruit extract” (CALLAGHAN INNOVATION, priority 2012, dated 2021).

How the values were obtained:
[1] = tested on: splenocytes of CIA mice; assay: Cytokine ELISA on splenocytes of CIA mice; type: in vivo; conditions: mean ± SD, 5 mice
Protocol: The production of IL-2, IL-4, IL-6, and IFN-γ from mitogen-stimulated splenocytes was determined as previously described (Chouaib, S.; Welte, K.; Mertelsman, R.; Dupont, B.; J. Immunol., 1985, 135, 1172-1179). Spleens were gently teased with forceps in the culture medium producing a suspension of spleen cells (CM, RPMI 1640 containing 10% fetal bovine serum, 2 mM L-glutamine, 1×10^5 units/L of penicillin and streptomycin). The red blood cells were lysed with 3 mL of lysing buffer (0.16 mol/L ammonia chloride Tris buffer, pH 7.2) at 37° C. for 5 minutes. The cells were then washed with CM twice. The cell concentrations were counted and adjusted to 2×10^6 cells/mL. Splenocytes ([…]) were cultured in triplicate on 96-well flat-bottom culture plates. Splenocytes (0.1 mL/well) were stimulated with ConA (1×10^−2 g/L, 0.1 mL/well) to induce IL-2, IL-4 and IFN-γ production. In other plates, splenocytes were cultured with lipopolysaccharide (1×10^−6 g/L) to induce IL-6 production. These plates were incubated at 37° C., 5% CO2; the culture time for IL-2, IL-4 and IL-6 is 24 hours (or 72 hours for IFN-γ). After incubation, supernatants were collected and stored at −70° C. The cytokines were determined by sandwich ELISA as previously described using a commercial kit.
To establish whether the protective effect of the feijoa fruit extract was related to the anti-inflammatory response observed in the CIA mice, pro-inflammatory cytokines (TNF-α, IL-2 and INF-γ) were investigated using the ELISA assay described in Example 3 (Table 9). It is well known that such cytokines play crucial roles in joint destruction by damaging the synovial cells within the joint. Consequently, a reduction in synovial cells within the joint results in an increase in friction, which in turn, results in inflammation and the potential development of arthritis.

[2] = tested on: collagen-induced arthritis (CIA) mice; assay: Collagen-induced arthritis mice: clinical score, treadmill, histology, radiology; type: in vivo
[3] = day 56-79, diet with extract (1.8 mg/day) or 10 mg/kg methotrexate, mean ± SD, 5 mice

Compound: CN(Cc1cnc2nc(N)nc(N)c2n1)c1ccc(C(=O)N[C@@H](CCC(=O)O)C(=O)O)cc1 [Methotrexate, methotrexate]
- IFN-γ level by splenocytes [1]: 182 ± 21 pg/mL
- IL-2 level by splenocytes [1]: 104 ± 10 pg/mL
- TNF-α level by splenocytes [1]: 255 ± 15 pg/mL
- Clinical Score (paw swelling) ([2]; day 56-79, diet with extract (1.8 mg/day) or 10 mg/kg methotrexate, 5 mice): 10.5 ± 0.7
- Foot pressure (treadmill) [2, 3]: 141.23 ± 5.28
- Running Speed (treadmill) [2, 3]: 121.36 ± 1.69 mm/s
- Histological evaluation of joint sections (H&E) ([2]; end of trial, FIGS. 2, 3): relatively normal joint structures with little soft tissue swelling
